# Measured values: patent publication EP2257297B1, “COMPOUNDS FOR USE IN THE TREATMENT OF ACNE, SEBORRHOEA AND SEBHORROEIC DERMATITIS, OR FOR REDUCING SEBUM SECRETION” (priority 2008, dated 2009)
# Target: T1, human MC5R (Homo sapiens, UniProt P33032)
# T1 construct: purchased Perkin Elmer RBXMC5M400UA
# Assay: Human MC5R radioligand binding assay ([125I] NDP-MSH displacement, hMC5R membranes)
# Conditions: hMC5R assay as in Example 102; compounds tested as trifluoroacetate or hydrochloride salts, or as free base
# Method in brief: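 Bound ligand collected by filtration on PEI-soaked GF/A filters and counted. Data fitted to a single-site competition model with fixed Hill coefficient to give EC50.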
# T1 sequence (P33032 whole entry): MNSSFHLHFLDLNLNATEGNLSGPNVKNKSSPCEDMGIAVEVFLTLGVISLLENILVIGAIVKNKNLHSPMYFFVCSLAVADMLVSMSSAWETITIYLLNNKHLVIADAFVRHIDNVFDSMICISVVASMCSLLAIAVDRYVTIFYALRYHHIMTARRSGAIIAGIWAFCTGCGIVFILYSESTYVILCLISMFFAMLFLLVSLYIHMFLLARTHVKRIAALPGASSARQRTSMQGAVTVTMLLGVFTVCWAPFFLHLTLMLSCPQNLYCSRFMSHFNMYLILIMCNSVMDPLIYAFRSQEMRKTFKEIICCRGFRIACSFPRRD
row,IC50 [nM],Structure (SMILES)
1,< 1000,"COc1cccc(/C=C/C(=O)NC[C@@H]2CCN(CC(c3ccccc3)c3ccccc3)C(=O)[C@H](CCCNC(=N)N)N2)c1 [Compound 180, (E)-N-(((3S,5S)-1-(2,2-diphenylethyl)-3-(3-guanidinopropyl)-2-oxo-1,4-diazepan-5-yl)methyl)-3-(3-methoxyphenyl)acrylamide]"
2,< 100,"O=C(NC[C@@H]1CCN(Cc2cc(Cl)cc(Cl)c2)C(=O)[C@H](CCN2CCCCC2)N1)c1ccc(Cl)c(Cl)c1 [Compound 343, 3,4-dichloro-N-(((3S,5S)-1-(3,5-dichlorobenzyl)-2-oxo-3-(2-(piperidin-1-yl)ethyl)-1,4-diazepan-5-yl)methyl)benzamide]"
3,< 100,"Cc1ccc(/C=C/C(=O)NC[C@@H]2CCN(CC(c3ccccc3)c3ccccc3)C(=O)[C@H](CCN)N2)cc1 [Compound 277, (E)-N-(((3S,5S)-3-(2-aminoethyl)-1-(2,2-diphenylethyl)-2-oxo-1,4-diazepan-5-yl)methyl)-3-p-tolylacrylamide]"
4,< 100,"N=C(N)NCCC[C@@H]1N[C@H](CNC(=O)/C=C/c2cccc(F)c2)CCN(CC(c2ccccc2)c2ccccc2)C1=O [Compound 173, (E)-N-(((3S,5S)-1-(2,2-diphenylethyl)-3-(3-guanidinopropyl)-2-oxo-1,4-diazepan-5-yl)methyl)-3-(3-fluorophenyl)acrylamide]"
5,< 1000,"CCCC[C@@H]1N[C@H](CNC(=O)/C=C/c2ccc(Cl)cc2)CCN(CC(c2ccccc2)c2ccccc2)C1=O [Compound 297, (E)-N-(((3S,5S)-3-butyl-1-(2,2-diphenylethyl)-2-oxo-1,4-diazepan-5-yl)methyl)-3-(4-chlorophenyl)acrylamide]"
6,< 1000,"COc1cc2ccccc2cc1C(=O)NC[C@@H]1CCN(CC(c2ccccc2)c2ccccc2)C(=O)[C@H](CCCNC(=N)N)N1 [Compound 163, N-(((3S,5S)-1-(2,2-diphenylethyl)-3-(3-guanidinopropyl)-2-oxo-1,4-diazepan-5-yl)methyl)-3-methoxy-2-naphthamide]"
7,< 10000,"N=C(N)NCCC[C@@H]1N[C@H](CNC(=O)c2ccc3cc(N)ccc3c2)CCN(CC(c2ccccc2)c2ccccc2)C1=O [Compound 218, 6-amino-N-(((3S,5S)-1-(2,2-diphenylethyl)-3-(3-guanidinopropyl)-2-oxo-1,4-diazepan-5-yl)methyl)-2-naphthamide]"
8,< 100,"Cc1ccc(C(=O)NC[C@@H]2CCN(CC(c3ccccc3)c3ccccc3)C(=O)[C@H](CCN3CCCCC3)N2)cc1C [Compound 285, N-(((3S,5S)-1-(2,2-diphenylethyl)-2-oxo-3-(2-(piperidin-1-yl)ethyl)-1,4-diazepan-5-yl)methyl)-3,4-dimethylbenzamide]"
9,< 1000,"O=C(/C=C/c1ccc(Cl)cc1)NC[C@@H]1CCN(CC(c2ccccc2)c2ccccc2)C(=O)[C@H](CCNC(=O)C2CCCCC2)N1 [Compound 306, N-(2-((2S,7S)-7-(((E)-3-(4-chlorophenyl)acrylamido)methyl)-4-(2,2-diphenylethyl)-3-oxo-1,4-diazepan-2-yl)ethyl)cyclohexanecarboxamide]"
10,< 1000,"N=C(N)NCCC[C@@H]1N[C@H](CNC(=O)c2ccc(Br)cc2)CCN(CC(c2ccccc2)c2ccccc2)C1=O [Compound 164, 4-bromo-N-(((3S,5S)-1-(2,2-diphenylethyl)-3-(3-guanidinopropyl)-2-oxo-1,4-diazepan-5-yl)methyl)benzamide]"
11,< 10000,"CCC(CC)CN1CC[C@@H](CNC(=O)c2ccc(Cl)c(C)c2)N[C@@H](CCN)C1=O [Compound 352, N-(((3S,5S)-3-(2-aminoethyl)-1-(2-ethylbutyl)-2-oxo-1,4-diazepan-5-yl)methyl)-4-chloro-3-methylbenzamide]"
12,< 100,"O=C(NC[C@@H]1CCN(CC(c2ccccc2)c2ccccc2)C(=O)[C@H](CCCNC2CCCCC2)N1)c1ccc2ccccc2c1 [Compound 226, N-(((3S,5S)-3-(3-(cyclohexylamino)propyl)-1-(2,2-diphenylethyl)-2-oxo-1,4-diazepan-5-yl)methyl)-2-naphthamide]"
13,< 100,"NCCC[C@@H]1N[C@H](CNC(=O)/C=C/c2ccc(F)cc2)CCN(CC(c2ccccc2)c2ccccc2)C1=O [Compound 220, (E)-N-(((3S,5S)-3-(3-aminopropyl)-1-(2,2-diphenylethyl)-2-oxo-1,4-diazepan-5-yl)methyl)-3-(4-fluorophenyl)acrylamide]"
14,< 1000,"N=C(N)NCCC[C@@H]1N[C@H](CNC(=O)c2cc3ccccc3cn2)CCN(CC(c2ccccc2)c2ccccc2)C1=O [Compound 114, N-(((3S,5S)-1-(2,2-diphenylethyl)-3-(3-guanidinopropyl)-2-oxo-1,4-diazepan-5-yl)methyl)isoquinoline-3-carboxamide]"
15,< 100,"NCCC[C@@H]1N[C@H](CNC(=O)c2ccc(-n3cccc3)cc2)CCN(CC(c2ccccc2)c2ccccc2)C1=O [Compound 238, N-(((3S,5S)-3-(3-aminopropyl)-1-(2,2-diphenylethyl)-2-oxo-1,4-diazepan-5-yl)methyl)-4-(1H-pyrrol-1-yl)benzamide]"
16,< 1000,"O=C(/C=C/c1ccc(Cl)cc1)NC[C@@H]1CCN(CC(c2ccccc2)c2ccccc2)C(=O)[C@H](CCc2ccccc2)N1 [Compound 320, (E)-3-(4-chlorophenyl)-N-(((3S,5S)-1-(2,2-diphenylethyl)-2-oxo-3-phenethyl-1,4-diazepan-5-yl)methyl)acrylamide]"
17,< 1000,"NCCCC[C@@H]1N[C@H](CNC(=O)c2ccc3ccccc3c2)CCN(CC(c2ccccc2)c2ccccc2)C1=O [Compound 126, N-(((3S,5S)-3-(4-aminobutyl)-1-(2,2-diphenylethyl)-2-oxo-1,4-diazepan-5-yl)methyl)-2-naphthamide]"
18,< 1000,"CC1=NN(c2ccc(C(=O)NC[C@@H]3CCN(CC(c4ccccc4)c4ccccc4)C(=O)[C@H](CCCN)N3)cc2)C(=O)C1 [Compound 259, N-(((3S,5S)-3-(3-aminopropyl)-1-(2,2-diphenylethyl)-2-oxo-1,4-diazepan-5-yl)methyl)-4-(3-methyl-5-oxo-4,5-dihydro-1H-pyrazol-1-yl)benzamide]"
19,< 1000,"NCCC[C@@H]1N[C@H](CNC(=O)c2ccc3ccccc3c2)CCN(CC(c2ccccc2)c2ccccc2)C1=O [Compound 63, N-(((3S,5S)-3-(3-aminopropyl)-1-(2,2-diphenylethyl)-2-oxo-1,4-diazepan-5-yl)methyl)-2-naphthamide]"
20,< 1000,"N=C(N)NCCC[C@@H]1N[C@H](CNC(=O)c2ccc3ccccc3c2)CCN(CCc2ccccc2)C1=O [Compound 182, N-(((3S,5S)-3-(3-guanidinopropyl)-2-oxo-1-phenethyl-1,4-diazepan-5-yl)methyl)-2-naphthamide]"
21,< 1000,"NCC[C@@H]1N[C@H](CNC(=O)c2ccc3cc(F)ccc3c2)CCN(CC(c2ccccc2)c2ccccc2)C1=O [Compound 31, N-(((3S,5S)-3-(2-aminoethyl)-1-(2,2-diphenylethyl)-2-oxo-1,4-diazepan-5-yl)methyl)-6-fluoro-2-naphthamide]"
22,< 100,"COc1ccc(/C=C/C(=O)NC[C@@H]2CCN(CC(c3ccccc3)c3ccccc3)C(=O)[C@H](CCCNC(=N)N)N2)cc1 [Compound 187, (E)-N-(((3S,5S)-1-(2,2-diphenylethyl)-3-(3-guanidinopropyl)-2-oxo-1,4-diazepan-5-yl)methyl)-3-(4-methoxyphenyl)acrylamide]"
23,< 10000,"CC(C)N(CC[C@@H]1N[C@H](CCNC(=O)c2ccc(Cl)c(Cl)c2)CCN(CC(c2ccccc2)c2ccccc2)C1=O)C(C)C [Compound 363, 3,4-dichloro-N-(2-((3S,5R)-3-(2-(diisopropylamino)ethyl)-1-(2,2-diphenylethyl)-2-oxo-1,4-diazepan-5-yl)ethyl)benzamide]"
24,< 1000,"NC[C@@H]1N[C@H](CNC(=O)c2ccc(Cl)c(Cl)c2)CCN(Cc2cc(Cl)cc(Cl)c2)C1=O [Compound 364, N-(((3S,5S)-3-(aminomethyl)-1-(3,5-dichlorobenzyl)-2-oxo-1,4-diazepan-5-yl)methyl)-3,4-dichlorobenzamide]"
25,< 10000,"N=C(N)NCCC[C@@H]1N[C@H](CNC(=O)COc2ccccc2)CCN(CC(c2ccccc2)c2ccccc2)C1=O [Compound 162, N-(((3S,5S)-1-(2,2-diphenylethyl)-3-(3-guanidinopropyl)-2-oxo-1,4-diazepan-5-yl)methyl)-2-phenoxyacetamide]"
26,< 1000,"O=C(NC[C@@H]1CCN(Cc2cc(Cl)cc(Cl)c2)C(=O)[C@H](CN2CCCC2)N1)c1ccc2ccccc2c1 [Compound 372, N-(((3S,5S)-1-(3,5-dichlorobenzyl)-2-oxo-3-(pyrrolidin-1-ylmethyl)-1,4-diazepan-5-yl)methyl)-2-naphthamide]"
27,< 1000,"N=C(N)NCCC[C@@H]1N[C@H](CNC(=O)c2ccc3c(c2)OCO3)CCN(CC(c2ccccc2)c2ccccc2)C1=O [Compound 148, N-(((3S,5S)-1-(2,2-diphenylethyl)-3-(3-guanidinopropyl)-2-oxo-1,4-diazepan-5-yl)methyl)benzo[d][1,3]dioxole-5-carboxamide]"
28,< 10,"N=C(N)NCCC[C@@H]1N[C@H](CNC(=O)c2ccc3cc(Br)ccc3c2)CCN(CC(c2ccccc2)c2ccccc2)C1=O [Compound 181, 6-bromo-N-(((3S,5S)-1-(2,2-diphenylethyl)-3-(3-guanidinopropyl)-2-oxo-1,4-diazepan-5-yl)methyl)-2-naphthamide]"
29,< 100,"N=C(N)NCCC[C@@H]1N[C@H](CNC(=O)/C=C/c2cccc(Cl)c2)CCN(CC(c2ccccc2)c2ccccc2)C1=O [Compound 177, (E)-3-(3-chlorophenyl)-N-(((3S,5S)-1-(2,2-diphenylethyl)-3-(3-guanidinopropyl)-2-oxo-1,4-diazepan-5-yl)methyl)acrylamide]"

# Same assay, conditions: hMC5R binding assay as in Example 102; compounds tested as trifluoroacetate or hydrochloride salts, or as free base
row,IC50 [nM],Structure (SMILES)
1,< 1000,"CC[C@@H](CN1CC[C@H](CNC(=O)c2ccc3cc(Cl)ccc3c2)N[C@H](CCN2CCCCC2)C1=O)c1ccccc1 [Compound 580, 6-chloro-N-(((3R,5R)-2-oxo-1-((R)-2-phenylbutyl)-3-(2-(piperidin-1-yl)ethyl)-1,4-diazepan-5-yl)methyl)-2-naphthamide]"
